# Test results: patent publication US11376224B2, “System for delivery of FK506 for enhancing nerve regeneration” (THE HOSPITAL FOR SICK CHILDREN, priority 2016, dated 2022)
# Experiment: FK506 tissue concentrations (organ exposure) by mass spectrometry after drug delivery system implantation
# Type: in vivo, Sprague-Dawley rats
# Method: FK506 was detectable within the proximal injured sciatic nerve, DRGs (L4, L5), the entire spinal cord, and the muscles surrounding the nerve repair site, decreasing in concentration over time. FK506 content within the tissues was determined using mass spectrometry. (Mean±standard deviation, n=4).
# Thirty adult female Sprague-Dawley rats were randomized into five groups (n=6). The experimental group included rats treated with fibrin gel loaded with FK506 by incorporating 10 microliters solubilized FK506 in acetonitrile (2 milligrams per milliliter), 200 micrograms solid FK506 particulates, or 5 milligrams of FK506 containing microspheres into the thrombin solution before it was mixed with fibrinogen to form a gel.
# During the procedure, the sciatic nerve was exposed and the main branches were dissected. The tibial (TIB) nerve was transected 5 millimeters distal to its bifurcation from the common peroneal (CP) nerve and sural nerves with fine microsurgical scissors. The proximal TIB nerve stump was cross-sutured to the distal stump of a cut CP nerve. In the groups receiving the fibrin gel based drug delivery system, the nerve suture site was surrounded by two 40 microliters of the fibrin gels (containing applicable components for each group) formed by pipetting the fluid fibrin mixture onto a Parafilm sheet as semi-rectangular drops (˜5×5 millimeters) and placing the drops above and below the repair site. By gently opposing the drops, the delivery system was secured around the nerve. Three weeks after repair, the number of neurons that regenerated their axons were determined using retrograde labeling 7 millimeter distal to the repair site. Nerve samples at the location of retrograde labeling were collected for histomorphometric analysis. Using mass spectrometry, FK506 tissue concentrations were analyzed at the site of the injury, in sciatic nerve, dorsal root ganglia (DRGs), spinal cord, brain, heart, liver, kidney, and plasma at 7, 14, and 28 days post repair.
# [1] = first week of drug release in vivo (7 days)
smiles,measurement,setting,value
C=CC[C@@H]1/C=C(\C)C[C@H](C)C[C@H](OC)[C@H]2O[C@@](O)(C(=O)C(=O)N3CCCC[C@H]3C(=O)O[C@H](/C(C)=C/[C@@H]3CC[C@@H](O)[C@H](OC)C3)[C@H](C)[C@@H](O)CC1=O)[C@H](C)C[C@@H]2OC [FK506],"FK506 levels in sciatic nerve, gluteal muscles, spinal cord, kidney",at 14 days,barely detectable levels
same,"FK506 within the DRGs (L4, L5)",at 14 days,accumulation
same,"FK506 within the DRGs (L4, L5)",at 28 days,undetectable
same,"FK506 levels in sciatic nerve, gluteal muscles, spinal cord, kidney",by 28 days,undetectable levels
same,"FK506 in contralateral sciatic nerve, contralateral gluteal muscles, contralateral L4-L5 DRGs",entire period of the treatment,did not contain any FK506
same,"FK506 in plasma, brain, liver, or heart",entire study period,not detectable
same,FK506 in entire spinal cord,[1],highest level
same,FK506 in gluteal muscles surrounding the nerve,[1],detected
same,FK506 in proximal injured sciatic nerve,[1],detected
